Columns and labels:
Assay type in all cases: in vivo
[1] = tested on: Italian ryegrass (Lolium multiflorum); test: Test B pre-/postemergence plant response
Summary of the method: (§1)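 Ratings reflect visual injury versus untreated controls, from 0 for no effect to 100 for complete control, assessed roughly 10 days after treatment. Formulation: non-phytotoxic solvent mix with surfactant; pre- and postemergence sprays on plants grown in loam soil and sand.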

[2] = tested on: barnyardgrass (Echinochloa crus-galli); test: Test B pre-/postemergence plant response
Summary of the method: as §1

[3] = tested on: corn (Zea mays); test: Test B pre-/postemergence plant response
Summary of the method: as §1

[4] = tested on: giant foxtail (Setaria faberii); test: Test B pre-/postemergence plant response
Summary of the method: as §1

[5] = tested on: kochia (Kochia scoparia); test: Test B pre-/postemergence plant response
Summary of the method: as §1

[6] = tested on: pigweed (Amaranthus retroflexus); test: Test B pre-/postemergence plant response
Summary of the method: as §1

[7] = tested on: ragweed (common ragweed, Ambrosia elatior); test: Test B pre-/postemergence plant response
Summary of the method: as §1

[8] = tested on: wheat (Triticum aestivum); test: Test B pre-/postemergence plant response
Summary of the method: as §1

[9] = tested on: blackgrass (Alopecurus myosuroides); test: Test B postemergence plant response
Summary of the method: (§2)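 Seedlings in a loam soil and sand mix received a postemergence application of the formulated chemicals at the one- to two-leaf stage (2–10 cm tall). They were kept in a greenhouse for roughly 10 days, then scored for injury relative to untreated plants, 0 meaning no effect and 100 complete control.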

[10] = tested on: galium (catchweed bedstraw, Galium aparine); test: Test B postemergence plant response
Summary of the method: as §2

[11] = tested on: barnyardgrass (Echinochloa crus-galli); test: Test C flooded paddy test plant response; settings: Flood, 250 g ai/ha; scale of 0 to 100 where 0 is no effect and 100 is complete control; 13 to 15 days
Summary of the method: (§3)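 Plants grown to 2-leaf stage, flooded 3 cm above soil; compounds applied directly into paddy water, depth kept throughout. Visual rating versus controls after 13 to 15 days in greenhouse, 0 (no effect) to 100 (complete control).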

[12] = tested on: ducksalad (Heteranthera limosa); test: Test C flooded paddy test plant response; settings: Flood, 250 g ai/ha; scale of 0 to 100 where 0 is no effect and 100 is complete control; 13 to 15 days
Summary of the method: as §3

[13] = tested on: rice (Oryza sativa); test: Test C flooded paddy test plant response; settings: Flood, 250 g ai/ha; scale of 0 to 100 where 0 is no effect and 100 is complete control; 13 to 15 days
Summary of the method: as §3

[14] = tested on: small-flower umbrella sedge (Cyperus difformis); test: Test C flooded paddy test plant response; settings: Flood, 250 g ai/ha; scale of 0 to 100 where 0 is no effect and 100 is complete control; 13 to 15 days
Summary of the method: as §3

[15] = 125 g ai/ha, postemergence, 0 to 100 scale, 0 no effect, 100 complete control
[16] = Postemergence, 500 g ai/ha, 0 to 100 scale (0 no effect, 100 complete control)
[17] = Preemergence, 125 g ai/ha, 0 to 100 scale where 0 is no effect and 100 is complete control
[18] = Preemergence, 500 g ai/ha, 0 to 100 scale where 0 is no effect and 100 is complete control
[19] = 31 g ai/ha, Preemergence, 0 to 100 scale where 0 is no effect and 100 is complete control
[20] = Postemergence, 31 g ai/ha, 0 to 100 scale (0 no effect, 100 complete control)
[21] = Preemergence, 125 g ai/ha, 0 to 100 scale (0 no effect, 100 complete control)

## Cn1nncc1-c1ccccc1Oc1ncc(Cl)cn1 [Compound 52]
[1]; [15]
  Plant response rating, Ryegrass, Italian: 0
[1]; [16]
  Plant response rating, Ryegrass, Italian: 0
[1]; [17]
  Plant response rating, Ryegrass, Italian: 0
[1]; [18]
  Plant response rating, Ryegrass, Italian: 0
[2]; [15]
  Plant response rating, Barnyardgrass: 0
[2]; [16]
  Plant response rating, Barnyardgrass: 10
[2]; [17]
  Plant response rating, Barnyardgrass: 0
[2]; [18]
  Plant response rating, Barnyardgrass: 0
[3]; [15]
  Plant response rating, Corn: 0
[3]; [16]
  Plant response rating, Corn: 10
[4]; [15]
  Plant response rating, Foxtail, Giant: 0
[4]; [16]
  Plant response rating, Foxtail, Giant: 0
[4]; [17]
  Plant response rating, Foxtail, Giant: 0
[4]; [18]
  Plant response rating, Foxtail, Giant: 0
[5]; [15]
  Plant response rating, Kochia: 20
[5]; [16]
  Plant response rating, Kochia: 50
[5]; [17]
  Plant response rating, Kochia: 0
[5]; [18]
  Plant response rating, Kochia: 30
[6]; [15]
  Plant response rating, Pigweed: 30
[6]; [16]
  Plant response rating, Pigweed: 60
[6]; [17]
  Plant response rating, Pigweed: 40
[6]; [18]
  Plant response rating, Pigweed: 50
[7]; [15]
  Plant response rating, Ragweed: 20
[7]; [16]
  Plant response rating, Ragweed: 20
[7]; [17]
  Plant response rating, Ragweed: 0
[7]; [18]
  Plant response rating, Ragweed: 0
[8]; [15]
  Plant response rating, Wheat: 0
[8]; [16]
  Plant response rating, Wheat: 20
[9]; [15]
  Plant response rating, Blackgrass: 0
[9]; [16]
  Plant response rating, Blackgrass: 10
[10]; [15]
  Plant response rating, Galium: 40
[10]; [16]
  Plant response rating, Galium: 50
[11]
  Barnyardgrass plant response rating: 0
[12]
  Ducksalad plant response rating: 0
[13]
  Rice plant response rating: 0
[14]
  Sedge, Umbrella plant response rating: 0

## Clc1cnc(Oc2ccccc2-c2cocn2)nc1 [Compound 214]
[1]; [19]
  Plant response rating, Ryegrass, Italian: 0
[1]; [15]
  Plant response rating, Ryegrass, Italian: 0
[1]; [20]
  Plant response rating, Ryegrass, Italian: 0
[1]; [21]
  Ryegrass, Italian plant response rating: 0
[2]; [19]
  Plant response rating, Barnyardgrass: 0
[2]; [15]
  Plant response rating, Barnyardgrass: 0
[2]; [20]
  Plant response rating, Barnyardgrass: 0
[2]; [21]
  Barnyardgrass plant response rating: 0
[3]; [15]
  Plant response rating, Corn: 0
[3]; [20]
  Plant response rating, Corn: 0
[4]; [19]
  Plant response rating, Foxtail, Giant: 0
[4]; [15]
  Plant response rating, Foxtail, Giant: 0
[4]; [20]
  Plant response rating, Foxtail, Giant: 0
[4]; [21]
  Foxtail, Giant plant response rating: 0
[5]; [19]
  Plant response rating, Kochia: 0
[5]; [15]
  Plant response rating, Kochia: 0
[5]; [20]
  Plant response rating, Kochia: 0
[5]; [21]
  Kochia plant response rating: 0
[6]; [19]
  Plant response rating, Pigweed: 0
[6]; [15]
  Plant response rating, Pigweed: 10
[6]; [20]
  Plant response rating, Pigweed: 0
[6]; [21]
  Pigweed plant response rating: 0
[7]; [19]
  Plant response rating, Ragweed: 0
[7]; [15]
  Plant response rating, Ragweed: 0
[7]; [20]
  Plant response rating, Ragweed: 0
[7]; [21]
  Ragweed plant response rating: 0
[8]; [15]
  Plant response rating, Wheat: 0
[8]; [20]
  Plant response rating, Wheat: 0
[9]; [15]
  Plant response rating, Blackgrass: 0
[9]; [20]
  Plant response rating, Blackgrass: 0
[10]; [15]
  Plant response rating, Galium: 10
[10]; [20]
  Plant response rating, Galium: 0
[11]
  Barnyardgrass plant response rating: 0
[12]
  Ducksalad plant response rating: 0
[13]
  Rice plant response rating: 0
[14]
  Sedge, Umbrella plant response rating: 0

## COc1cnc(Oc2ccccc2-c2cc(C(F)F)no2)nc1 [Compound 213]
[1]; [19]
  Plant response rating, Ryegrass, Italian: 0
[1]; [15]
  Plant response rating, Ryegrass, Italian: 0
[1]; [20]
  Plant response rating, Ryegrass, Italian: 0
[1]; [21]
  Ryegrass, Italian plant response rating: 0
[2]; [19]
  Plant response rating, Barnyardgrass: 0
[2]; [15]
  Plant response rating, Barnyardgrass: 0
[2]; [20]
  Plant response rating, Barnyardgrass: 0
[2]; [21]
  Barnyardgrass plant response rating: 40
[3]; [15]
  Plant response rating, Corn: 10
[3]; [20]
  Plant response rating, Corn: 0
[4]; [19]
  Plant response rating, Foxtail, Giant: 0
[4]; [15]
  Plant response rating, Foxtail, Giant: 20
[4]; [20]
  Plant response rating, Foxtail, Giant: 0
[4]; [21]
  Foxtail, Giant plant response rating: 80
[5]; [19]
  Plant response rating, Kochia: 10
[5]; [15]
  Plant response rating, Kochia: 100
[5]; [20]
  Plant response rating, Kochia: 60
[5]; [21]
  Kochia plant response rating: 50
[6]; [19]
  Plant response rating, Pigweed: 80
[6]; [15]
  Plant response rating, Pigweed: 80
[6]; [20]
  Plant response rating, Pigweed: 30
[6]; [21]
  Pigweed plant response rating: 100
[7]; [19]
  Plant response rating, Ragweed: 0
[7]; [15]
  Plant response rating, Ragweed: 60
[7]; [20]
  Plant response rating, Ragweed: 10
[7]; [21]
  Ragweed plant response rating: 0
[8]; [15]
  Plant response rating, Wheat: 10
[8]; [20]
  Plant response rating, Wheat: 0
[9]; [15]
  Plant response rating, Blackgrass: 10
[9]; [20]
  Plant response rating, Blackgrass: 0
[10]; [15]
  Plant response rating, Galium: 80
[10]; [20]
  Plant response rating, Galium: 50
[11]
  Barnyardgrass plant response rating: 0
[12]
  Ducksalad plant response rating: 75
[13]
  Rice plant response rating: 0
[14]
  Sedge, Umbrella plant response rating: 0

## FC(F)(F)COc1cc(-c2ccccc2Oc2ncc(Cl)cn2)on1 [Compound 176]
[1]; [19]
  Plant response rating, Ryegrass, Italian: 0
[1]; [15]
  Plant response rating, Ryegrass, Italian: 10
[1]; [20]
  Plant response rating, Ryegrass, Italian: 0
[1]; [21]
  Ryegrass, Italian plant response rating: 10
[2]; [19]
  Plant response rating, Barnyardgrass: 10
[2]; [15]
  Plant response rating, Barnyardgrass: 30
[2]; [20]
  Plant response rating, Barnyardgrass: 10
[2]; [21]
  Barnyardgrass plant response rating: 50
[3]; [15]
  Plant response rating, Corn: 30
[3]; [20]
  Plant response rating, Corn: 10
[4]; [19]
  Plant response rating, Foxtail, Giant: 60
[4]; [15]
  Plant response rating, Foxtail, Giant: 50
[4]; [20]
  Plant response rating, Foxtail, Giant: 20
[4]; [21]
  Foxtail, Giant plant response rating: 90
[5]; [19]
  Plant response rating, Kochia: 0
[5]; [15]
  Plant response rating, Kochia: 100
[5]; [20]
  Plant response rating, Kochia: 30
[5]; [21]
  Kochia plant response rating: 20
[6]; [19]
  Plant response rating, Pigweed: 30
[6]; [15]
  Plant response rating, Pigweed: 100
[6]; [20]
  Plant response rating, Pigweed: 90
[6]; [21]
  Pigweed plant response rating: 90
[7]; [19]
  Plant response rating, Ragweed: 0
[7]; [15]
  Plant response rating, Ragweed: 20
[7]; [20]
  Plant response rating, Ragweed: 10
[7]; [21]
  Ragweed plant response rating: 0
[8]; [15]
  Plant response rating, Wheat: 0
[8]; [20]
  Plant response rating, Wheat: 0
[9]; [15]
  Plant response rating, Blackgrass: 30
[9]; [20]
  Plant response rating, Blackgrass: 0
[10]; [15]
  Plant response rating, Galium: 90
[10]; [20]
  Plant response rating, Galium: 30
[11]
  Barnyardgrass plant response rating: 0
[12]
  Ducksalad plant response rating: 75
[13]
  Rice plant response rating: 0
[14]
  Sedge, Umbrella plant response rating: 30
